# Source: patent US11919900B1 (priority 2023, dated 2024)
# Tested on: Mycobacterium tuberculosis H37Rv (ATCC: 25177)
# Assay: Resazurin Microplate Assay (REMA), antitubercular activity, H37Rv
# Format: cell-based
# Settings: Middlebrook 7H9 broth, 8 days at 37° C. then resazurin overnight
row,Compound,Antitubercular activity against Mycobacterium tuberculosis H37Rv (MIC)
1,"Ethyl 4-bromo-1-(2-nitrobenzoyl)pyrrolo[1,2-a]quinoline-3-carboxylate [QUIN-KNV12]",1 µg/mL

# Same assay, conditions: Mycobacterium tuberculosis, 192 h, Middlebrook 7H9 broth, 8 days at 37° C. then resazurin overnight, read-out: Antitubercular activity against Mycobacterium tuberculosis H37Rv (MIC)
row,Compound,MIC
1,"COC(=O)c1c(C(=O)OC)c2c(Br)cc3ccccc3n2c1C(=O)c1ccc(C#N)cc1 [QUIN-KNV9, Dimethyl 4-bromo-1-(4-cyanobenzoyl)pyrrolo[1,2-a]quinoline-2,3-dicarboxylate]",8 µg/mL
2,"CCOC(=O)c1cc(C(=O)c2ccc(Cl)cc2)n2c1c(Br)cc1ccccc12 [QUIN-KNV4, Ethyl 4-bromo-1-(4-chlorobenzoyl)pyrrolo[1,2-a]quinoline-3-carboxylate]",8 µg/mL
3,"COC(=O)c1c(C(=O)OC)c2c(Br)cc3ccccc3n2c1C(=O)c1ccc(OC)cc1 [QUIN-KNV1, Dimethyl 4-bromo-1-(4-methoxybenzoyl)pyrrolo[1,2-a]quinoline-2,3-dicarboxylate]",0.5 µg/mL
4,"COC(=O)c1c(C(=O)OC)c2c(Br)cc3ccccc3n2c1C(=O)c1ccccc1 [QUIN-KNV11, Dimethyl 1-benzoyl-4-bromopyrrolo[1,2-a]quinoline-2,3-dicarboxylate]",32 µg/mL
5,"COC(=O)c1c(C(=O)OC)c2c(Br)cc3ccccc3n2c1C(=O)c1ccc(F)cc1 [QUIN-KNV7, Dimethyl 4-bromo-1-(4-fluorobenzoyl)pyrrolo[1,2-a]quinoline-2,3-dicarboxylate]",16 µg/mL
6,"CCOC(=O)c1cc(C(=O)c2ccc(F)cc2)n2c1c(Br)cc1ccccc12 [QUIN-KNV8, Ethyl 4-bromo-1-(4-fluorobenzoyl)pyrrolo[1,2-a]quinoline-3-carboxylate]",1 µg/mL
7,"COC(=O)c1c(C(=O)OC)c2c(Br)cc3ccccc3n2c1C(=O)c1ccc(Cl)cc1 [QUIN-KNV3, Dimethyl 4-bromo-1-(4-chlorobenzoyl)pyrrolo[1,2-a]quinoline-2,3-dicarboxylate]",1 µg/mL
8,"CCOC(=O)c1cc(C(=O)c2ccc(C#N)cc2)n2c1c(Br)cc1ccccc12 [QUIN-KNV10, Ethyl 4-bromo-1-(4-cyanobenzoyl)pyrrolo[1,2-a]quinoline-3-carboxylate]",8 µg/mL
9,"CCOC(=O)c1cc(C(=O)c2ccc(Br)cc2)n2c1c(Br)cc1ccccc12 [QUIN-KNV6, Ethyl 4-bromo-1-(4-bromobenzoyl)pyrrolo[1,2-a]quinoline-3-carboxylate]",2 µg/mL
10,"CCOC(=O)c1cc(C(=O)c2ccc(OC)cc2)n2c1c(Br)cc1ccccc12 [QUIN-KNV2, Ethyl 4-bromo-1-(4-methoxybenzoyl)pyrrolo[1,2-a]quinoline-3-carboxylate]",1 µg/mL
11,"COC(=O)c1c(C(=O)OC)c2c(Br)cc3ccccc3n2c1C(=O)c1ccc(Br)cc1 [QUIN-KNV5, Dimethyl 4-bromo-1-(4-bromobenzoyl)pyrrolo[1,2-a]quinoline-2,3-dicarboxylate]",0.5 µg/mL
